Key:
[1] = tested on: diet-induced obese (DIO) rats; assay: Glycaemic control (OGTT) in diet-induced obese rats with impaired glucose tolerance; assay type: in vivo, rat; settings: glutaminyl thiazolidine hydrochloride 60 mg/kg BID, Metformin 125 mg/kg BID
Procedure: Selectively bred male rats, 5-6 weeks of age, displaying enhanced likelihood of developing diet-induced obesity (DIO) are selected from the breeding colony. A total of 40 DIO animals are included in the study.
Upon entry to the experiment, rats are housed individually (1 rat/cage) in a 12/12 light-dark cyldle (light from 0600-1800 h) with controlled temperature conditions (22-24° C.). […] After one week of acclimatisation, 24 h food and water intake and body-weight is measured gravimetrically twice weekly (in the morning between 8-10 am). After 3 weeks of HF feeding, average daily food consumption is calculated for all rats. The average food intake comprises a platform from which a scheduled feeding regime is implemented. […]
This test is carried out at 8:00 AM on days 6 and 42. […] Blood samples are taken from an indwelling arterial catheter and P-glucose is measured on automated analyser (Roche Diagnostics) at time points −60, −30, 0, 15, 30, 60, 120, and 180 min after oral administration of 1 g/kg glucose (using 1 g/ml dH2O). […] P-insulin is measured at time points: 0, 15, 30, 60, 120 using an ultra-sensitive ELISA (Shibayagi,Japan).
All rats are equipped with intra-arterial catheters at day −7. […] All blood samples are taken in EDTA Vacutainer tubes and plasma glucose is measured together with total Cholesterol and triacylglycerol. […]

[2] = tested on: diabetic Zucker (fa/fa) rats; assay: Glutaminyl thiazolidine and Metformin alone or in combination, glycemic control in diabetic Zucker (fa/fa) rats; assay type: in vivo, rat
Procedure: Ten or eleven weeks old male Zucker (fa/fa) rats were purchased from Charles River (Sulzfeld, Germany). Animals were kept under standardized semi-barrier conditions with controlled temperature (22±2° C.) on a 12/12 hours light/dark cycle (light on at 06:00 a.m.). Standard pelleted chow (ssniff®, Soest, Germany) and tap water acidified with HCl were allowed ad libitum. At the age of 12 weeks the animals (N=42) were divided in random order into six experimental groups to be medicated. Definition of the Experimental Groups for the Medications (GT=glutaminyl thiazolidine):
The single or combined doses per kg b.w. were solved in 5 mL dist. water for oral administration.
The study was started with the 12 to 13 weeks old Zucker (fa/fa) rats. At the beginning of the study an OGTT was performed (2 g glucose/kg body weight (b.w.); administration volume: 5 mL/kg of a 40% solution; B. Braun Melsungen, Melsungen, Germany) after a 16 h fast. […] Dosing was performed at t=5 min before OGTT by gavage.
Blood samples were taken from tail veins to measure blood glucose and serum insulin at −15, ±0 min, 15, 30, 60, 90, 120 and 180 min (the latter time without insulin samples) with respect to time of glucose administration.
After the first OGTT the animals in the groups were dosed twice daily with the respective drugs at 08:00 AM and at 04:00 PM, respectively:
During the two weeks of medication morning blood glucose was measured before the 08:00 AM medication at Monday, Wednesday and Friday.
Food intake was determined every day during the time of medication.
All the animals were weighted three times per week at 7:30 AM.
A second OGTT was performed after two weeks of medication (Day 15). The food was withdrawn at 04:00 PM the day before (16 h fast). The OGTT was performed with pre-medication at −5 min and oral glucose loading at ±0 min. Blood samples were taken from tail veins to measure blood glucose, and serum insuline at −15, ±0 min, 15, 30, 60, 90, 120 and 180 min (the latter time without insulin samples).
Glycated hemoglobin was measured before (Day −7) and on Day 18.
Glucose-For determination of glucose 20 μL blood were collected at −15, ±0 min (before OGTT) and 15, 30, 60, 90, 120 and 180 min post OGTT.
Insulin-Insulin concentrations were assayed by the antibody RIA method (Linco Research, Inc. St. Charles, Mo., USA).
Glycated haemoglobin-Percentage of glycated hemoglobin A (HbA1c) was estimated with the “DCA 2000R Hämoglobin A1c-Reagenz kit”(Bayer Vital GmbH, Fernwald, Germany).
The body weight was measured using a platform balance (Scaltec, Heiligenstadt, Germany).
Mixed venous blood samples from the tails were collected into 20 μL glass capillaries, which were placed in standard tubes filled with 1 ml solution for hemolysis (blood glucose measurement) and in sample tubes for serum insulin (50 μL blood).
Raw data of glucose analysis were provided by IDK to probiodrug in Excel format as soon as possible. Data for each drug and each parameter (glucose, insulin) were summarized by descriptive statistics (mean, SEM). […] Changes from baseline were calculated and summarized by descriptive statistic.

NC(=O)CC[C@H](N)C(=O)N1CCSC1 [glutaminyl thiazolidine]
oral glucose tolerance [1]: improved oral glucose tolerance | reactive and absolute G-AUC ([2]; GT 60 mg/kg b.w. and/or Metformin 125 mg/kg b.w. (Met-low), b.i.d. oral, p<0.05 vs. Control): significantly reduced | glucose tolerance curve in the OGTT ([2]; GT 60 mg/kg b.w. and/or Metformin 125 mg/kg b.w. (Met-low), b.i.d. oral, vs. Control): significantly improved glucose tolerance curves | glucose tolerance ([2]; subchronic (18 days) b.i.d. administration, diabetic fatty Zucker rats (fa/fa)): improved glucose tolerance

Source: patent publication US20060287251A1, “Combination therapy for glycaemic control” (priority 2003, published 2006)
